Reference: patent US6491922B1, “Methods and compounds for treating autoimmune and vascular disease” (Cornell Research Foundation, Inc., priority 1996, dated 2002)
“And” between values parts separate entries of the source, which are not always exact repeats. Identical values can stand only once. “Also recorded” adds a separate entry of the source. Like-named read-outs stand apart in the source and are kept apart here.

Key:
IL-1β promoter = format: cell-based, human; details: for suppression of endotoxin-induced CAT activity: LPG 2 μM 1 h; for suppression of LPS-induced CAT activity: 2 μM LPG 2 h
[1] = tested on: human umbilical vein endothelial cells; experiment: LPG and LPG fragment binding to endothelial cells (indirect immunofluorescence, FACS); details: LPG 1 μM
endothelial cells [2] = experiment: ^3H-lyso-PI binding to endothelial cells; design: species or system human; details: cold-LPG competition at 20×molar excess; n=2
Protocol: To evaluate whether lyso-PI may directly bind to endothelial cells, endothelial cells (10^6 per ml) were incubated with ^3H-lyso-PI (1 μM [specific activity, ˜10,000 cpm/nmole], 45 min, 25° C.). As a control, endothelial cells were pretreated with LPG (20 μM, 15 min, 25° C.) before the incubation with ^3H-lyso-PI. Following incubation, the cell suspension was layed onto silicone oil (Silicones FC-50, General Electric, Waterford, N.Y.) and cell-bound ^3H-lyso-PI was separated from free-^3H-lyso-PI by centrifugation (10,000 g, 10 min, room temperature). The amount of ^3H-lyso-PI in the cell pellet and in the supernatant were solubilized in Ecoscint (National Diagnostics, Highland Park, N.J.) and quantitated by a β-emission counter (Beckman Instruments, Palo Alto, Calif.).

tissue factor = experiment: Tissue factor production by endothelial cells (one-stage clotting assay); format: cell-based, human
Protocol: Endothelial cell monolayers were pretreated with LPG for 1 hour and stimulated with endotoxin. Cultured endothelial cells, when stimulated by endotoxin, expressed high amounts of tissue factor. […] The production of tissue factor (in culture supernatant) is determined by a one-stage clotting assay. Helin et. al., “Allogeneic Induction of the Human T-cell-instructed Monocyte Procoagulant Response is Rapid and is Elicited by HLA-DR,” J. Exp. Med. 158: 962-75 (1983), which is hereby incorporated by reference.
To further examine if LPG can inhibit other endothelial cell functions, it was determined whether LPG inhibits thrombosis. Since thrombosis is mediated by the release of tissue factor (“TF”) by endothelial cells, the ability of LPG to inhibit TF production was evaluated. Cultured endothelial cells when stimulated by endotoxin express TF as determined by a one-stage clotting assay. Helin et. al., “Allogeneic Induction of the Human T-cell-instructed Monocyte Procoagulant Response is Rapid and is Elicited by HLA-DR,” J. Exp. Med. 158: 962-75 (1983), which is hereby incorporated by reference. […] To explore whether this effect was agonist specific, another agonist, TNF-α which is known to up-regulate TF generation, was used.

[3] = tested on: HIV p24 antigen, ACH-2 cells; experiment: HIV p24 antigen production in chronically HIV-infected ACH-2 cells; format: cell-based; details: 72 h
Protocol: LPG, the major surface molecule of Leishmania, has macrophage deactivating functions. Based on the ability of LPG to suppress the generation of ROI and cytokine gene expression, we evaluated the potential that LPG may similarly suppress HIV production. FIGS. 27A-D illustrate the effect of 2 μM LPG pretreatment for 2 h on the induction HIV from chronically HIV-infected monocytic and T cell lines respectively, U1 and ACH-2 cells. LPG treatment of U1 cells for 72 h inhibited basal production of HIV p24 antigen at basal and induction in response to PMA, TNF-α and LPS by 90%, 82%, 60% and 66%, respectively (FIGS. 27A, B). The suppression of HIV p24 antigen production was time-dependent (FIG. 27B). […] The inhibition was also time-dependent. The results are the mean of 2 separate experiments and the SD was less than 10%.

U1 and ACH-2 cells = experiment: Cell viability and proliferation (bromo-deoxy-uridine incorporation) of HIV-infected cell lines; format: cell-based, human
THP-1 cells = experiment: THP-1 cell viability; format: cell-based, human; details: LPG 0.01 to 2 μM, data not shown
endothelial cells [4] = experiment: Endothelial adhesion to monocytes (MM6) assay
Protocol: Endothelial cell were isolated from human umbilical veins by an established method as described. […] In all experiments, 2-4 passages of subcultured endothelial cells were used and were grown on fibronectin-precoated 96-well plates for 2-3 days prior to use.
On the day of the experiment, endothelial cells were treated with endotoxin (E. coli, J5, 10 ng/ml) for 4 h. MM6 (1×10^5 cells) were subsequently added to the endotoxin-stimulated endothelial cells. Monocyte adhesion was performed for 20 min at 37° C. Unbound MM6 cells were removed by washing (3×). Adhesion of MM6 onto endothelium was quantitated by counting the bound MM6 cells under a microscope. […] The values of triplicates were averaged, and variations between triplicates were <5%. […] For experiments to examine if LPG could inhibit endotoxin-mediated monocyte adhesion, the endothelial cells were first preincubated with LPG (2 μM) for 1-2 h at 37° C. prior to the addition of endotoxin.

**Q.** Which results are given for lipophosphoglycan [LPG]?
**A.** LPG's inhibitory activity on LPS-induced CAT activity (IL-1β promoter; IL-1β promoter deleted to −57): completely abrogated; also recorded: no LPG inhibitory activity; suppression of CAT activity (IL-1β promoter; IL-1β promoter truncated to −131): 7%+1% and 7%; suppression of endotoxin-induced CAT activity (IL-1β promoter; deletional mutant X2-HT-CAT (−3757 to −2729 linked to −131 to +11)): 8%+4% and 8%; suppression of endotoxin-induced CAT activity (IL-1β promoter; full-length −3757 to +11 construct (XT-CAT), n=5): 50%+5%; effect on endotoxin-activation of IL-1β promoter activity in presence of serum (IL-1β promoter; medium with 2.5% or 5% FBS, LPG 2 μM 2 h, LPS 2 μg/ml): suppresses; also recorded: similar; suppression of LPS-induced CAT activity (IL-1β promoter; plasmid with −310/+15 promoter sequence, LPS 2 μg/ml): approximately 40%; suppression of LPS-induced CAT activity (IL-1β promoter; plasmid with −680/+15 promoter sequence, LPS 2 μg/ml): approximately 40%; suppression of LPS-induced CAT activity (IL-1β promoter; plasmid with −1110/+15 promoter sequence, LPS 2 μg/ml): approximately 40%; time at which LPG binding was obvious [1]: 16 min; LPG binding ([1]; 1 h): significant LPG was bound; inhibition of ^3H-lyso-PI binding (endothelial cells [2]): 29±3%; effect on TNF-α induction of endothelial cell production of TF (tissue factor): no effect; effect on endotoxin-induction of TF (tissue factor; LPG 2 μM): completely abrogated; effect on endotoxin induction of TF production (tissue factor; LPG pretreatment 1 hour): dose-dependent inhibition; inhibition of HIV p24 antigen production in response to LPS ([3]; 2 μM LPG pretreatment 2 h): 69%; inhibition of HIV p24 antigen production in response to PMA ([3]; 2 μM LPG pretreatment 2 h): 81%; inhibition of HIV p24 antigen production in response to TNF-α ([3]; 2 μM LPG pretreatment 2 h): 88%; inhibition of basal production of HIV p24 antigen ([3]; 2 μM LPG): 62%; percentages of viable cells (U1 and ACH-2 cells; cells treated or not treated with LPG): 98%; effect on cell proliferation (bromo-deoxy-uridine incorporation) (U1 and ACH-2 cells; each of the stimulation conditions): did not alter; effect on cell viability (THP-1 cells): not affected; inhibition of endotoxin-mediated monocyte adhesion (dose-dependent 0.01 μM to 2 μM) (endothelial cells [4]; 2 μM LPG pretreatment, endotoxin 10 ng/ml 4 h): completely inhibiting; effect on IL-1β-mediated endothelial cell adhesion (endothelial cells [4]; IL-1β 100 U/ml, n=4): lack of LPG inhibitory activity; inhibition of endotoxin-mediated monocyte adhesion (time-dependent) (endothelial cells [4]; LPG 2 μM, 2 h pretreatment, endotoxin 10 ng/ml 4 h): completely abrogating; TNF-α-mediated endothelial adhesion to monocytes (endothelial cells [4]; LPG plus TNF-α, TNF-α alone 1,750±100, basal 100±50, n=6): 1,650±130 cell/mm^2; minimal pretreatment time required for inhibition of endotoxin-mediated monocyte adhesion (endothelial cells [4]; endothelial cells): 15 to 30 min; effect on TNF-α-mediated endothelial adhesion to monocytes (endothelial cells [4]; n=6): did not affect; IC50 (endothelial cells [4]; read-out: half-maximal inhibitory concentration, endotoxin-mediated monocyte adhesion): ~600 nM
